Like-named read-outs stand apart in the source and are kept apart here.
Tests used:
BTK = BTK (Homo sapiens (Human), UniProt Q06187); test: In vitro BTK kinase assay: Btk-PolyGAT-LS assay; format: biochemical; conditions: ATP 10 μM, polyGAT 100 nM, BTK 0.25 nM, 30 minutes
[1] = tested on: CD69 expression on CD19+ B cells in human whole blood; test: In vitro whole blood CD69 assay; format: cell-based; conditions: B-cell
[2] = Whole Blood CD69 inhibition, human heparinized blood, anti-human IgD stimulation, CD19+ B cells expressing CD69, read-out: IC50

Sequence of BTK (Q06187 whole entry): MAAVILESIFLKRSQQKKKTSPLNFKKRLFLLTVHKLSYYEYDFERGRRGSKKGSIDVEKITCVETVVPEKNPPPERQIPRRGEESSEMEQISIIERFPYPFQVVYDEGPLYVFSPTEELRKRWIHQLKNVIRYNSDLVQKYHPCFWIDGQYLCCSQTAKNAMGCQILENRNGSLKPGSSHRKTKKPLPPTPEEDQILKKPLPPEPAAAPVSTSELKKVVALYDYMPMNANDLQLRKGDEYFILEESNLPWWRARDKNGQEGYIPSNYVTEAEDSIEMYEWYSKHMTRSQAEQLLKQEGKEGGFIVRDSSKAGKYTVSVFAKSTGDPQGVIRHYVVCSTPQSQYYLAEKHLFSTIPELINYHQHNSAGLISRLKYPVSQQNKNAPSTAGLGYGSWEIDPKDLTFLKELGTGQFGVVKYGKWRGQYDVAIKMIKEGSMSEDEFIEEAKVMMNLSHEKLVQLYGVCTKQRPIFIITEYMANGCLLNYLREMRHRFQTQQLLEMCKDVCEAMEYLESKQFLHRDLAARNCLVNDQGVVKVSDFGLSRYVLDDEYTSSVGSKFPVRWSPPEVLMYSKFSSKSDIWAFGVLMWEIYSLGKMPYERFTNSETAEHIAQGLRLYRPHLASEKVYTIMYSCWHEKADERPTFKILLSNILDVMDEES

Row | SMILES | IC50 (BTK) [nM] | IC50 [1, 2] [nM] | IC50 ([1]; Homo sapiens) [nM]
1 | C=CC(=O)N1CCCC(Oc2cnccc2-c2ccc(CNC(=O)c3cn(C(C)(C)C)nn3)c(C)c2)C1 (stereo not shown) [Example 38, N-(4-(3-((1-acryloylpiperidin-3-yl)oxy)pyridin-4-yl)-2-methylbenzyl)-1-(tert-butyl)-1H-1,2,3-triazole-4-carboxamide] | > 10 | > 1000 | –
2 | C=CC(=O)N(C)CCOc1c(N)ncnc1-c1ccc(CN2CCN(CC(C)(C)C)CC2=O)c(C)c1 [Example 9, N-(2-((4-amino-6-(3-methyl-4-((4-neopentyl-2-oxopiperazin-1-yl)methyl)phenyl)pyrimidin-5-yl)oxy)ethyl)-N-methylacrylamide] | < 1 | < 100 | –
3 | Cc1cc(-c2ccncc2OC2CCN(C(=O)/C=C/CN(C)C)C2)ccc1CNC(=O)c1cn(C(C)(C)C)nn1 (stereo not shown) [Example 41, (E)-1-(tert-butyl)-N-(4-(3-((1-(4-(dimethylamino)but-2-enoyl)pyrrolidin-3-yl)oxy)pyridin-4-yl)-2-methylbenzyl)-1H-1,2,3-triazole-4-carboxamide] | > 10 | > 1000 | –
4 | C=CC(=O)N(C)CCOc1cnccc1-c1ccc(CNC(=O)c2noc(C(C)(C)C)n2)c(C)c1F [Example 5, 5-(tert-butyl)-N-(3-fluoro-2-methyl-4-(3-(2-(N-methylacrylamido)ethoxy)pyridin-4-yl)benzyl)-1,2,4-oxadiazole-3-carboxamide] | < 1 | < 100 | –
5 | C=CC(=O)N1CCCC1COc1cnccc1-c1ccc(CNC(=O)c2cn(C(C)(C)C)nn2)c(C)c1F (stereo not shown) [Example 49, N-(4-(3-((1-acryloylpyrrolidin-2-yl)methoxy)pyridin-4-yl)-3-fluoro-2-methylbenzyl)-1-(tert-butyl)-1H-1,2,3-triazole-4-carboxamide] | 1 to 10 | > 1000 | –
6 | C=CC(=O)N(C)CCOc1cnccc1-c1ccc(CN2CCc3c(cnn3C(C)(C)C)C2=O)c(C)c1 [Example 12, N-(2-((4-(4-((1-(tert-butyl)-4-oxo-1,4,6,7-tetrahydro-5H-pyrazolo[4,3-c]pyridin-5-yl)methyl)-3-methylphenyl)pyridin-3-yl)oxy)ethyl)-N-methylacrylamide] | < 1 | 100 to 1000 | –
7 | Cc1cc(-c2ccncc2OC2CN(C(=O)/C=C/CN(C)C)C2)ccc1CNC(=O)c1cn(C(C)(C)C)nn1 [Example 40, (E)-1-(tert-butyl)-N-(4-(3-((1-(4-(dimethylamino)but-2-enoyl)azetidin-3-yl)oxy)pyridin-4-yl)-2-methylbenzyl)-1H-1,2,3-triazole-4-carboxamide] | > 10 | > 1000 | –
8 | C=CC(=O)N1CC[C@@H](Oc2cnccc2-c2ccc(CNC(=O)c3cn(C(C)(C)C)nn3)c(C)c2)C1 (single isomer, unassigned) [Example 35] | > 10 | > 1000 | –
9 | C=CC(=O)N(C)CCOc1c(N)ncnc1-c1ccc(CNC(=O)c2nc(C(C)(C)C)no2)c(C)c1 [Example 7, N-(4-(6-amino-5-(2-(N-methylacrylamido)ethoxy)pyrimidin-4-yl)-2-methylbenzyl)-3-(tert-butyl)-1,2,4-oxadiazole-5-carboxamide] | < 1 | < 100 | –
10 | C=CC(=O)N(C)CCOc1c(N)ncnc1-c1ccc(CNC(=O)c2nnc(C(C)(C)C)o2)c(C)c1 [Example 1, N-(4-(6-amino-5-(2-(N-methylacrylamido)ethoxy)pyrimidin-4-yl)-2-methylbenzyl)-5-(tert-butyl)-1,3,4-oxadiazole-2-carboxamide] | < 1 | – | < 100
11 | Cc1cc(-c2ccncc2OC2CCN(C(=O)/C=C/CN(C)C)CC2)ccc1CNC(=O)c1cn(C(C)(C)C)nn1 [Example 42, (E)-1-(tert-butyl)-N-(4-(3-((1-(4-(dimethylamino)but-2-enoyl)piperidin-4-yl)oxy)pyridin-4-yl)-2-methylbenzyl)-1H-1,2,3-triazole-4-carboxamide] | < 1 | 100 to 1000 | –
12 | C=CC(=O)N1CC[C@H](Oc2cnccc2-c2ccc(CNC(=O)c3cn(C(C)(C)C)nn3)c(C)c2)C1 (single isomer, unassigned) [Example 36] | 1 to 10 | > 1000 | –
13 | C=CC(=O)N1CCC(Oc2cnccc2-c2ccc(CNC(=O)c3cn(C(C)(C)C)nn3)c(C)c2)CC1 [Example 37, N-(4-(3-((1-acryloylpiperidin-4-yl)oxy)pyridin-4-yl)-2-methylbenzyl)-1-(tert-butyl)-1H-1,2,3-triazole-4-carboxamide] | < 1 | > 1000 | –
14 | C=CC(=O)N1CCCC[C@@H]1C(=O)Nc1cnccc1-c1ccc(CNC(=O)c2noc(C(C)(C)C)n2)c(C)c1 [Example 31, (R)-N-(4-(3-(1-acryloylpiperidine-2-carboxamido)pyridin-4-yl)-2-methylbenzyl)-5-(tert-butyl)-1,2,4-oxadiazole-3-carboxamide] | < 1 | < 100 | –
15 | C=CC(=O)N1CC(Oc2cnccc2-c2ccc(CNC(=O)c3cn(C(C)(C)C)nn3)c(C)c2)C1 [Example 33, N-(4-(3-((1-acryloylazetidin-3-yl)oxy)pyridin-4-yl)-2-methylbenzyl)-1-(tert-butyl)-1H-1,2,3-triazole-4-carboxamide] | 1 to 10 | – | > 1000
16 | C=CC(=O)N(C)CCOc1c(N)ncnc1-c1ccc(CNC(=O)c2cn(C(C)(C)C)nn2)c(C)c1 [Example 8, N-(4-(6-amino-5-(2-(N-methylacrylamido)ethoxy)pyrimidin-4-yl)-2-methylbenzyl)-1-(tert-butyl)-1H-1,2,3-triazole-4-carboxamide] | < 1 | < 100 | –
17 | C=CC(=O)N1CCCC[C@H]1C(=O)Nc1cnccc1-c1ccc(CNC(=O)c2noc(C(C)(C)C)n2)c(C)c1 [Example 32, (S)-N-(4-(3-(1-acryloylpiperidine-2-carboxamido)pyridin-4-yl)-2-methylbenzyl)-5-(tert-butyl)-1,2,4-oxadiazole-3-carboxamide] | < 1 | < 100 | –
18 | C=CC(=O)N1CCCC(Oc2cncnc2-c2ccc(CNC(=O)c3cn(C(C)(C)C)nn3)c(C)c2)C1 (stereo not shown) [Example 39, N-(4-(5-((1-acryloylpiperidin-3-yl)oxy)pyrimidin-4-yl)-2-methylbenzyl)-1-(tert-butyl)-1H-1,2,3-triazole-4-carboxamide] | > 10 | > 1000 | –
19 | C=CC(=O)N(C)CCOc1c(N)ncnc1-c1ccc(CNC(=O)c2noc(C(C)(C)C)n2)c(C)c1 [Example 2, N-(4-(6-amino-5-(2-(N-methylacrylamido)ethoxy)pyrimidin-4-yl)-2-methylbenzyl)-5-(tert-butyl)-1,2,4-oxadiazole-3-carboxamide] | < 1 | – | < 100
20 | C=CC(=O)N(C)CCOc1cnccc1-c1ccc(CNC(=O)c2noc(C(C)(C)C)n2)c(C)c1 [Example 4, 5-(tert-butyl)-N-(2-methyl-4-(3-(2-(N-methylacrylamido)ethoxy)pyridin-4-yl)benzyl)-1,2,4-oxadiazole-3-carboxamide] | < 1 | < 100 | –
21 | C=CS(=O)(=O)N1CCCC1COc1cnccc1-c1ccc(CNC(=O)c2cn(C(C)(C)C)nn2)c(C)c1F (stereo not shown) [Example 50, 1-(tert-butyl)-N-(3-fluoro-2-methyl-4-(3-((1-(vinylsulfonyl)pyrrolidin-2-yl)methoxy)pyridin-4-yl)benzyl)-1H-1,2,3-triazole-4-carboxamide] | < 1 | > 1000 | –
22 | C#CC(=O)N1CCC(Oc2cnccc2-c2ccc(CNC(=O)c3cn(C(C)(C)C)nn3)c(C)c2)CC1 [Example 44, 1-(tert-butyl)-N-(2-methyl-4-(3-((1-propioloylpiperidin-4-yl)oxy)pyridin-4-yl)benzyl)-1H-1,2,3-triazole-4-carboxamide] | < 1 | > 1000 | –
23 | C=CC(=O)N(C)CCOc1c(N)ncnc1-c1ccc(CN2Cc3cc(C4CC4)sc3C2=O)c(C)c1 [Example 11, N-(2-((4-amino-6-(4-((2-cyclopropyl-6-oxo-4,6-dihydro-5H-thieno[2,3-c]pyrrol-5-yl)methyl)-3-methylphenyl)pyrimidin-5-yl)oxy)ethyl)-N-methylacrylamide] | < 1 | 100 to 1000 | –
24 | C=CC(=O)N(C)CCOc1c(N)ncnc1-c1ccc(CN2CCc3c(cnn3C(C)(C)C)C2=O)c(C)c1 [Example 6, N-(2-((4-amino-6-(4-((1-(tert-butyl)-4-oxo-1,4,6,7-tetrahydro-5H-pyrazolo[4,3-c]pyridin-5-yl)methyl)-3-methylphenyl)pyrimidin-5-yl)oxy)ethyl)-N-methylacrylamide] | < 1 | < 100 | –
25 | C#CC(=O)N1CCC(Oc2cnccc2-c2ccc(CNC(=O)c3cn(C(C)(C)C)nn3)c(C)c2)C1 (stereo not shown) [Example 43, 1-(tert-butyl)-N-(2-methyl-4-(3-((1-propioloylpyrrolidin-3-yl)oxy)pyridin-4-yl)benzyl)-1H-1,2,3-triazole-4-carboxamide] | 1 to 10 | > 1000 | –
26 | C=CC(=O)N(C)CCOc1cncnc1-c1ccc(CNC(=O)c2noc(C(C)(C)C)n2)c(C)c1 [Example 3, 5-(tert-butyl)-N-(2-methyl-4-(5-(2-(N-methylacrylamido)ethoxy)-pyrimidin-4-yl)benzyl)-1,2,4-oxadiazole-3-carboxamide] | < 1 | < 100 | –

— patent US12570631B2, “Substituted N-(4-(pyrimidin and pyridin-4-yl)benzylcarboxamides and its use for treating disorders responsive to inhibition of Btk” (BIOGEN MA INC., priority 2019, dated 2026)
